Test systems include NCI-H460; MDA-N; A549; SK-MEL-28; MCF7; 786-0; M14; NCI-H522; SF-539; MDA-MB-231; SN12C; Malme-3M; KM12; NCI-H226; Hs-578T; OVCAR-8; HCC 2998; HCT-116; U-251; SK-OV-3.
Common to all, as to test: inhibition of tumour cell growth, NCI panel, 48 h

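Assay format: 96-well plates, 48-hour exposure. At the GI50, growth is halved.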 The source made the active and inactive calls. No stated cut-off is given here; in the data, active = GI50 up to about 1.1 µM and inactive = higher.

From ChEMBL document CHEMBL1201862, “PubChem BioAssay data set” (2004) come the findings set out here.

Regarding `O=C(OCc1ccccc1)N(CCCCN(CCCNCc1ccccc1)C(=O)OCc1ccccc1)CCCNCc1ccccc1`, the GI50 was 0.188 µM (active) with NCI-H460; 0.288 µM (active) in the assay with MDA-N; 0.782 µM (active) with A549; 1.62 µM (inactive) in the assay on SK-MEL-28; 7.76 µM (inactive) with MCF7; 0.289 µM (active) in the assay on 786-0. Also, the GI50 in the assay on M14 is 0.252 µM (active); in the assay with NCI-H522 it was 0.647 µM (active); in the assay on SF-539 it was 0.243 µM (active); with MDA-MB-231 it was 0.885 µM (active); in the assay on SN12C, 0.834 µM (active); in the assay with Malme-3M, 1.71 µM (inactive). The GI50 was 0.43 µM (active) with KM12; 1.05 µM (active) in the assay on NCI-H226; 1.31 µM (inactive) in the assay on Hs-578T; 1.54 µM (inactive) in the assay with OVCAR-8; 0.462 µM (active) in the assay on HCC 2998; 0.249 µM (active) in the assay on HCT-116. Also, the GI50 was 0.258 µM (active) with U-251 and 14.5 µM (inactive) with SK-OV-3.
`Cc1ccc(C2SC(=N)Nc3c2c(C)nn3C(=O)c2ccc(Cl)cc2)cc1` (stereo not given): the GI50 with NCI-H460, with MDA-N, in the assay on A549, with SK-MEL-28, with MCF7 and in the assay on 786-0 was > 10 µM (inactive) in each case. The GI50 in the assay with M14, with NCI-H522, in the assay with SF-539, in the assay with MDA-MB-231, with SN12C and with Malme-3M was > 10 µM (inactive) in each case. The GI50 in the assay on KM12, in the assay with NCI-H226, in the assay on Hs-578T, with OVCAR-8, in the assay on HCC 2998 and in the assay on HCT-116 was > 10 µM (inactive) throughout. Moreover, the GI50 in the assay on U-251 and with SK-OV-3 was > 10 µM (inactive) each time.
On to `Nc1nc(S)c2c(N)n[nH]c2c1C(=O)Nc1ccc(Cl)cc1`, for which the GI50 with NCI-H460 was 54.1 µM (inactive); in the assay with MDA-N it was 89.7 µM (inactive); in the assay with A549, > 100 µM (inactive); in the assay with SK-MEL-28, > 100 µM (inactive); in the assay with MCF7, > 100 µM (inactive); with 786-0 it was 45.9 µM (inactive). Also, the GI50 is 45.4 µM (inactive) with M14; 96.4 µM (inactive) in the assay on NCI-H522; > 100 µM (inactive) in the assay with SF-539; > 100 µM (inactive) with MDA-MB-231; > 100 µM (inactive) in the assay with SN12C; > 100 µM (inactive) in the assay with Malme-3M. Further, the GI50 with KM12 was 21.4 µM (inactive); in the assay with NCI-H226, > 100 µM (inactive); in the assay with Hs-578T, > 100 µM (inactive); with OVCAR-8, 32.1 µM (inactive); in the assay with HCC 2998, > 100 µM (inactive); with HCT-116, > 100 µM (inactive). Also, the GI50 in the assay on U-251 and with SK-OV-3 was > 100 µM (inactive) throughout.
Take `CCOC(=O)C(C#N)C1=CC(=O)C(=O)c2ccc(O)cc21` (stereo not given): the GI50 in the assay with NCI-H460 was > 100 µM (inactive); in the assay on MDA-N, 18.5 µM (inactive); with A549, > 100 µM (inactive); in the assay on SK-MEL-28 it was > 100 µM (inactive); in the assay with MCF7, > 100 µM (inactive); in the assay on 786-0, > 100 µM (inactive). For the same molecule, the GI50 with M14 is 20.9 µM (inactive); in the assay on NCI-H522, 26.9 µM (inactive); with SF-539, 55.3 µM (inactive); with MDA-MB-231, 32.1 µM (inactive); in the assay on SN12C, > 100 µM (inactive); with Malme-3M, 47 µM (inactive). For the same molecule, the GI50 in the assay with KM12 was > 100 µM (inactive); with NCI-H226, 41.2 µM (inactive); in the assay on Hs-578T it was 17.2 µM (inactive); with OVCAR-8 it was 44.7 µM (inactive); in the assay on HCC 2998, > 100 µM (inactive); in the assay with HCT-116, 55.1 µM (inactive). The figures for the GI50 in the assay on U-251 and in the assay on SK-OV-3 were 48.5 µM (inactive) and > 100 µM (inactive), respectively.
On to `COc1cc2c(cc1OC)CN1CCCc3cc(OC)c(OC)cc3C1C2` (stereo not given), for which the GI50 is 31.4 µM (inactive) with NCI-H460; 17.3 µM (inactive) in the assay on MDA-N; 55 µM (inactive) with A549; 32 µM (inactive) in the assay with SK-MEL-28; 31 µM (inactive) in the assay with MCF7; 33.2 µM (inactive) in the assay with 786-0. The GI50 in the assay with M14 was 40.6 µM (inactive); with NCI-H522, 29.4 µM (inactive); in the assay on SF-539 it was 24.3 µM (inactive); in the assay with MDA-MB-231, 56.5 µM (inactive); with SN12C it was 42.7 µM (inactive); in the assay with Malme-3M, 30.3 µM (inactive). Also, the GI50 in the assay with KM12 was 50 µM (inactive); with NCI-H226 it was 27.9 µM (inactive); in the assay on Hs-578T, 40.8 µM (inactive); with OVCAR-8 it was 57.7 µM (inactive); in the assay on HCC 2998, 33.7 µM (inactive); in the assay with HCT-116, 23.1 µM (inactive). Also, the results for the GI50 in the assay with U-251 and with SK-OV-3 were 36.6 µM (inactive) and 63.4 µM (inactive), respectively.
Take `O=C1CSC(=S)N1c1ccc(F)cc1F`: the GI50 with NCI-H460 was 83.2 µM (inactive); in the assay with MDA-N, 36.3 µM (inactive); with A549 it was 61.9 µM (inactive); with SK-MEL-28 it was 78.7 µM (inactive); in the assay on MCF7 it was 21.7 µM (inactive); with 786-0, > 100 µM (inactive). For the same molecule, the GI50 in the assay with M14 is 40.9 µM (inactive); in the assay on NCI-H522, 18 µM (inactive); with SF-539, 38.7 µM (inactive); in the assay on MDA-MB-231 it was > 100 µM (inactive); in the assay on SN12C, > 100 µM (inactive); with Malme-3M it was 66.5 µM (inactive). Further, the GI50 in the assay on KM12 was > 100 µM (inactive); in the assay with NCI-H226 it was > 100 µM (inactive); in the assay with Hs-578T it was 41.3 µM (inactive); in the assay on OVCAR-8 it was 58.3 µM (inactive); with HCC 2998, 34.8 µM (inactive); in the assay with HCT-116 it was > 100 µM (inactive). Also, the results for the GI50 in the assay on U-251 and with SK-OV-3 were 59.2 µM (inactive) and > 100 µM (inactive), respectively.
With `Cn1c2ccccc2n2c3nc4ccccc4nc3c(C#N)c12`, the GI50 in the assay on NCI-H460 was 5.48 µM (inactive); with MDA-N it was > 100 µM (inactive); with A549 it was > 100 µM (inactive); with SK-MEL-28, > 100 µM (inactive); with MCF7 it was > 75 µM (inactive); in the assay with 786-0, 93.8 µM (inactive). Moreover, the GI50 in the assay with M14 was > 100 µM (inactive); in the assay on NCI-H522 it was 5.9 µM (inactive); in the assay on SF-539, 62.8 µM (inactive); in the assay on MDA-MB-231 it was > 97.1 µM (inactive); in the assay on SN12C, > 94.2 µM (inactive); with Malme-3M, > 81.8 µM (inactive). For the same molecule, the GI50 with KM12 is 9.44 µM (inactive); in the assay with NCI-H226 it was > 100 µM (inactive); in the assay with Hs-578T, 56 µM (inactive); with OVCAR-8, 74.1 µM (inactive); in the assay on HCC 2998 it was 9.68 µM (inactive); in the assay on HCT-116 it was 53.8 µM (inactive). The figures for the GI50 with U-251 and in the assay with SK-OV-3 were 74 µM (inactive) and 99.5 µM (inactive), respectively.
For the molecule `CC(C)OC(=O)C1(C(C)C)CCc2ccc(C(=O)CCC(=O)O)cc21` (stereo not given), the GI50 in the assay on NCI-H460, with MDA-N, in the assay with A549, in the assay on SK-MEL-28, in the assay with MCF7 and in the assay with 786-0 was > 100 µM (inactive) throughout. Besides, the GI50 in the assay on M14, with NCI-H522, in the assay on SF-539, with MDA-MB-231, in the assay on SN12C and with Malme-3M was > 100 µM (inactive) in each case. The GI50 in the assay on KM12, with NCI-H226, in the assay with Hs-578T, with OVCAR-8, with HCC 2998 and in the assay with HCT-116 was > 100 µM (inactive) throughout. The GI50 in the assay on U-251 and in the assay on SK-OV-3 was > 100 µM (inactive) in each case.
Regarding `CC(C)(C)OC(=O)N(O)CCCn1cnc2c(NC3CC3)ncnc21`, the GI50 with NCI-H460, in the assay with MDA-N, in the assay with A549, in the assay on SK-MEL-28, in the assay with MCF7 and with 786-0 was > 100 µM (inactive) in each case. Also, the GI50 in the assay on M14, with NCI-H522, with SF-539, with MDA-MB-231, in the assay on SN12C and in the assay on Malme-3M was > 100 µM (inactive) each time. Moreover, the GI50 in the assay on KM12, in the assay with NCI-H226, in the assay on Hs-578T, in the assay on OVCAR-8, with HCC 2998 and in the assay with HCT-116 was > 100 µM (inactive) throughout. Also, the GI50 with U-251 and in the assay on SK-OV-3 was > 100 µM (inactive) in each case.
For `CC(C)(NC1=NCCO1)c1ccccc1`, the GI50 with NCI-H460, in the assay on MDA-N, in the assay with A549, in the assay on SK-MEL-28, in the assay on MCF7 and in the assay with 786-0 was > 100 µM (inactive) each time. Moreover, the GI50 in the assay on M14, in the assay on NCI-H522, in the assay on SF-539, in the assay with MDA-MB-231, with SN12C and in the assay on Malme-3M was > 100 µM (inactive) throughout. Moreover, the GI50 in the assay with KM12, in the assay on NCI-H226, in the assay on Hs-578T, with OVCAR-8, with HCC 2998 and in the assay on HCT-116 was > 100 µM (inactive) each time. Moreover, the GI50 in the assay with U-251 and with SK-OV-3 was > 100 µM (inactive) throughout.
